Data taken from US6884810B2, “Benzimidazole derivatives” (Zeria Pharmaceutical Co., Ltd., priority 2001, dated 2005).

The compounds below were run against T1, CYP2C19 (Homo sapiens, UniProt P33261) (assay: Human CYP2C19 activity inhibition test (S-(+)-mephenytoin to 4'-hydroxymephenytoin)). Conditions: human, pH 7.4, probe S-(+)-mephenytoin (to 4'-hydroxymephenytoin), test compound 10 μM; human CYP2C19 yeast expression system microsome; 4'-hydroxymephenytoin generated vs control; read-out: CYP2C19 residual activity (%).
T1 construct: purchased Sumitomo Chemical Co., Ltd; host or cells: yeast (microsomes)
T1 sequence (P33261 whole entry): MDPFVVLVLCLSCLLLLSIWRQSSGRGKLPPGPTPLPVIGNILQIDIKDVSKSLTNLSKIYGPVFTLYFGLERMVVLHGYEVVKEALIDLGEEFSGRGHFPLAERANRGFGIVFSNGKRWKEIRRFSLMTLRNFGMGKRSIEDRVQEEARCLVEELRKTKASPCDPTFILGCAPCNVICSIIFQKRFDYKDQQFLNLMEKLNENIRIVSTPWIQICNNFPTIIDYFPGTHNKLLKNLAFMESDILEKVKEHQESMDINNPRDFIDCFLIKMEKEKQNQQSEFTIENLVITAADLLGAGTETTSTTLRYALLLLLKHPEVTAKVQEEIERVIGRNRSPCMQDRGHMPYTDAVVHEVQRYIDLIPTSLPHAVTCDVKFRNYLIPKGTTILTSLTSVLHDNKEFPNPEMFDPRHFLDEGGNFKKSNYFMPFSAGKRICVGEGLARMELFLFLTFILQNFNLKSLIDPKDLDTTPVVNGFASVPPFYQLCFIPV
Assay type: in vitro ADME
Description: (Human CYP2C19 Activity Inhibition Test)
CYP2C19 specifically participates in the metabolism reaction from S-(+)-mephenytoin to 4′-hydroxymephenytoin. Therefore, by use of an expression system CYP2C19, the production amount (concentration) of 4′-hydroxymephenytoin, serving as an index for CYP2C19 activity, was determined, whereby the inhibitory action of respective test substances was investigated.
(a) Metabolizing Activity Test
A solution of S-(+)-mephenytoin in methanol (125 μmol/L, 50 μL) and a solution of a test substance in methanol (25 μmol/L, 0, 10, 100, or 200 μL) were placed in a 10-mL glass test tube. The solvent was removed under a nitrogen gas at 40° C. A 75 μL mixture of 0.5M phosphate buffer (pH 7.4)-0.5 mM EDTA (20:10), 140 μL purified water, and 10 μL human CYP2C19 yeast expression system microsome (purchased from Sumitomo Chemical Co., Ltd.) were added.
Incubation was performed for 10 minutes at 37° C. Subsequently, aqueous 12% perchloric acid solution (50 μL) was added, to thereby stop the reaction.
After the reaction was stopped, an internal standard substance (I.S.) methyl p-hydroxybenzoate (100 μg/ mL, 50 μL), and diethyl ether (2 mL) were added. The mixture was shaken for 10 minutes, followed by centrifugation at 3,000 rpm for 10 minutes. The organic layer was separated, and the solvent was removed under a nitrogen gas at 40° C. The residue was dissolved in a 200 μL mobile phase, and the mixture was subjected to analysis by high performance liquid chromatography (HPLC).
In order to generate a calibration curve, the general procedure of the above process was repeated by use of 4′-hydroxymephenytoin solution instead of the S-(+)-mephenytoin solution. Quantitation was performed on the basis of the peak area ratio of 4′-hydroxymephenytoin to I.S. The amount of 4′-hydroxymephenytoin generated in the control sample was compared with that generated in the present of a test compound, and the results of comparison were used as an activity index.
HPLC was performed under the conditions described below (HPLC conditions A or HPLC conditions B).

`COc1c(OCCOCC(F)(F)F)ccnc1C[S+]([O-])c1nc2ccccc2[nH]1` (single isomer, unassigned; (+)) [Example 3(2), (+)-2-{3-methoxy-4-[2-(2,2,2-trifluoroethoxy)ethoxy]pyridin-2-yl-methylsulfinyl}-1H-benzimidazole] was tested. Which activity at 10 min, 10 µM did it give?
The activity at 10 min, 10 µM was 98.3%.

Which activity at 10 min, 10 µM does the source give for `COc1c(OCCCC(F)(F)F)ccnc1C[S+]([O-])c1nc2ccccc2[nH]1` (single isomer, unassigned; (-)) [Example 6(1), (−)-2-[3-methoxy-4-(4,4,4-trifluorobutoxy)pyridin-2-yl-methanesulfinyl]-1H-benzimidazole] here?
Its activity at 10 min, 10 µM is 66.4%.

`[O-][S+](Cc1cc(OCCCC(F)(F)F)ccn1)c1nc2ccccc2[nH]1` (single isomer, unassigned; (-)) [Example 10(2), (−)-2-[4-(4,4,4-trifluorobutoxy)pyridin-2-yl-methanesulfinyl]-1H-benzimidazole] was tested. Which activity at 10 min, 10 µM did it give?
The activity at 10 min, 10 µM was 89.4%.

For `[O-][S+](Cc1cc(OCCOCC(F)(F)F)ccn1)c1nc2ccccc2[nH]1` (single isomer, unassigned; (-)) [Example 13(3), (−)-2-{4-[2-(2,2,2-trifluoroethoxy)ethoxy]pyridin-2-yl-methanesulfinyl}-1H-benzimidazole], which activity at 10 min, 10 µM is on record?
The activity at 10 min, 10 µM was 98.6%.

`COc1c(OCCCC(F)(F)F)ccnc1C[S+]([O-])c1nc2ccccc2[nH]1` (stereo not drawn) [Example 1(2), 2-[3-methoxy-4-(4,4,4-trifluorobutoxy)pyridin-2-yl-methylsulfinyl]-1H-benzimidazole] was tested. Which activity at 10 min, 10 µM did it give?
The activity at 10 min, 10 µM was 71.2%.

With `COc1c(OCCOCC(F)(F)F)ccnc1C[S+]([O-])c1nc2ccccc2[nH]1` (stereo not drawn) [Example 2(2), 2-{3-methoxy-4-[2-(2,2,2-trifluoroethoxy)ethoxy]pyridin-2-yl-methylsulfinyl}-1H-benzimidazole] as the compound, how does the activity at 10 min, 10 µM read?
Its activity at 10 min, 10 µM is 66.5%.

Which activity at 10 min, 10 µM does the source give for `[O-][S+](Cc1cc(OCCCC(F)(F)F)ccn1)c1nc2ccccc2[nH]1` (stereo not drawn) [Example 9(3), 2-[4-(4,4,4-trifluorobutoxy)pyridin-2-yl-methanesulfinyl]-1H-benzimidazole] here?
Its activity at 10 min, 10 µM is 76.1%.

`COc1ccc2nc([S@@+]([O-])Cc3ncc(C)c(OC)c3C)[nH]c2c1` [esomeprazole, reference compound] was tested. Which activity at 10 min, 10 µM did it give?
The activity at 10 min, 10 µM was 35.4%.

How did the activity at 10 min, 10 µM turn out when `Cc1c(OCC(F)(F)F)ccnc1C[S+]([O-])c1nc2ccccc2[nH]1` (stereo not drawn) [lansoprazole, reference compound] was run?
The activity at 10 min, 10 µM was 8.7%.

Which activity at 10 min, 10 µM does the source give for `COc1ccc2[nH]c([S+]([O-])Cc3ncc(C)c(OC)c3C)nc2c1` (stereo not drawn) [omeprazole, reference compound] here?
The activity at 10 min, 10 µM was 18.4%.

How did the activity at 10 min, 10 µM turn out when `COc1ccnc(C[S+]([O-])c2nc3ccc(OC(F)F)cc3[nH]2)c1OC` (stereo not drawn) [pantoprazole, reference compound] was run?
The activity at 10 min, 10 µM was 33.1%.

`COCCCOc1ccnc(C[S+]([O-])c2nc3ccccc3[nH]2)c1C` (stereo not drawn) [rabeprazole, reference compound] was tested. Which activity at 10 min, 10 µM did it give?
The activity at 10 min, 10 µM was 39.8%.
